Laboratory results from PubChem BioAssay (NCI).
“And” between values parts separate entries of the source, which are not always exact repeats. Equal entries are not always repeated.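 Cultured in 96-well plates, cells were exposed to test compound for 48 hours across five concentrations. Abbreviation: GI50, concentration required for 50% inhibition of growth. The concentration for full growth arrest is given as TGI.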

What was measured:
Experiment in all cases: DTP human tumour cell line panel, 48 h
[1] = system: 786-0 renal
[2] = system: CCRF-CEM leukemia
[3] = system: HCC-2998 colon
[4] = system: HCT-116 colon
[5] = system: HOP-92 NSCLC
[6] = system: K-562 leukemia
[7] = system: NCI/ADR-RES ovarian
[8] = system: SK-MEL-5 melanoma
[9] = system: SR leukemia
[10] = system: CAKI-1 renal

SMILES	GI50 [1]	TGI [1] [µM]	GI50 [2]	TGI [2]	GI50 [3]	TGI [3]	GI50 [4]	TGI [4]	GI50 [5]	TGI [5]	GI50 [6]	TGI [6]	GI50 [7]	TGI [7] [µM]	GI50 [8]	TGI [8]	GI50 [9]	TGI [9]	GI50 [10] [µM]	TGI [10]
COCC1(CO)C(=O)C2CCN1CC2 (stereo unspecified)	17.4 µM	35.5	10.8 µM	37.1 µM	> 100 µM	> 100 µM	14.3 µM	27.9 µM	14.8 µM	30 µM	19.9 µM	58.5 µM	25.6 µM	> 78.6	43.7 µM	> 77.7 µM	18.4 µM	58.4 µM	–	–
NC(=O)c1cc(S(=O)(=O)Nc2nnc(-c3ccccc3)c(-c3ccccc3)n2)c(SCc2ccccc2)cc1Cl	> 100 µM	> 100	> 50.4 µM	> 82.3 µM	> 100 µM	> 100 µM	> 100 µM	> 100 µM	> 100 µM	> 100 µM	54.6 µM	> 100 µM	> 100 µM	> 100	> 79.6 µM	> 100 µM	42.2 µM	> 70.9 µM	> 100	> 100 µM
CC[C@H]1CN2CCc3cc(OC)c(OC)cc3[C@@H]2C[C@@H]1C[C@H]1NCCc2c1[nH]c1ccc(O)cc21	0.0246 µM and 0.0421 µM	–	0.0129 µM and 0.0207 µM	0.239 µM and 0.054 µM and 0.326 µM	0.0229 µM and 0.0287 µM	0.0568 µM and 0.0856 µM and 0.0758 µM	0.0196 µM and 0.0409 µM	0.0475 µM and 0.207 µM and 0.195 µM	0.0183 µM and 0.0337 µM	–	0.0263 µM and 0.0353 µM	–	0.0161 µM	–	0.0234 µM and 0.14 µM	0.0553 µM and 0.294 µM and 0.0304 µM	0.0152 µM and 0.0333 µM	–	–	0.614 µM and 0.68 µM
OCCCNc1nccc(-c2c(-c3ccc(F)cc3)nn3cc(C(F)(F)F)ccc23)n1	10.2 µM	> 25	11.4 µM	> 25 µM	> 23.4 µM	> 25 µM	11.7 µM	> 25 µM	8.1 µM	> 25 µM	10.4 µM	> 25 µM	8.25 µM	> 25	8.4 µM	> 25 µM	> 25 µM	> 25 µM	> 21.7	> 25 µM
O=C(CSC1CCc2ccccc21)N/N=C/c1ccccc1O (stereo unspecified)	6.87 µM	> 100	1.64 µM	45.4 µM	5.59 µM	35.4 µM	5.01 µM	65.6 µM	2.61 µM	37.5 µM	4.59 µM	> 100 µM	3.44 µM	35	1.85 µM	5.17 µM	4.03 µM	34.4 µM	1.93	12.7 µM
O=C1NC(=NCCc2cccc(Cl)c2)S/C1=C\c1ccc2ncccc2c1	> 25 µM	> 25	> 25 µM	> 25 µM	> 25 µM	> 25 µM	–	–	> 25 µM	> 25 µM	1.17 µM	> 25 µM	> 25 µM	> 25	> 25 µM	> 25 µM	0.403 µM	> 25 µM	> 25	> 25 µM
C=C1C(=O)O[C@H]2[C@H]1CC/C(COC(=O)/C=C\C(=O)NCc1ccc(Cn3c(=O)sn(CCCC)c3=O)cc1)=C\CC[C@@]1(C)O[C@@H]21	1.2 µM	2.56	0.275 µM	1.63 µM	1.64 µM	3.19 µM	0.176 µM	0.491 µM	0.655 µM	2.04 µM	0.316 µM	4.82 µM	1.51 µM	6.13	1.4 µM	2.71 µM	0.288 µM	> 100 µM	0.328	1.48 µM
CCOC(=O)c1c(NC(=O)c2cccc(C(F)(F)F)c2)sc2c(CN(C)C)c(O)ccc12	2.33 µM	6.1	3.41 µM	11.7 µM	1.77 µM	3.77 µM	3.14 µM	10.3 µM	2.76 µM	15.2 µM	1.83 µM	4.76 µM	8.82 µM	21	2.36 µM	5.72 µM	3.16 µM	6.92 µM	2.16	5.07 µM
Cc1[nH]c(/C=C2\C(=O)Nc3ccccc32)c(C)c1CCC(=O)O	44.1 µM	> 100	28.3 µM	> 100 µM	–	> 100 µM	25.9 µM	> 100 µM	12.7 µM	43.2 µM and 62.8 µM	–	> 100 µM	–	> 100	19.8 µM	48.7 µM and 81.5 µM	19.7 µM	48.7 µM and 57.9 µM	15.9	68.1 µM and > 100 µM
CCN1C(=O)N(CC)C2C1NN=c1s/c(=C3\C(=O)N(CC(C)(C)C)c4ccccc43)c(=O)n12 (stereo unspecified)	5.65 µM	27.8	3.62 µM	> 100 µM	3.4 µM	13.8 µM	3.43 µM	14.5 µM	2.56 µM	16 µM	1.65 µM	20.9 µM	2.61 µM	13.3	2.11 µM	5.21 µM	0.755 µM	41.6 µM	1.84	22.2 µM
O=S(=O)(Nc1ccc(F)cc1F)c1ccc(-c2cnc(C3CC3)o2)cc1	0.906 µM	63	0.856 µM	> 100 µM	2.39 µM	27.3 µM	0.421 µM	> 64 µM	0.25 µM	10.6 µM	0.211 µM	> 100 µM	0.394 µM	15	0.666 µM	12.9 µM	0.406 µM	> 100 µM	0.562	> 65.3 µM
COC(=O)[C@@H](C)C[C@H](Cc1ccccc1)NC(=O)c1csc([C@@H](C[C@H](C(C)C)N(C)C(=O)[C@@H](NC(=O)[C@H]2CCCCN2C)C2CCCCC2)OC(C)=O)n1	0.00175 µM and 0.0025 µM	2.74	0.00195 µM and 0.0025 µM	5.8 µM	0.000455 µM and 0.0025 µM	> 25 µM	0.000325 µM and 0.0025 µM	0.00325 µM	0.000977 µM and 0.0025 µM	0.0112 µM	0.000374 µM and 0.0025 µM	4.33 µM	0.0215 µM and 0.0481 µM	> 25	–	0.0131 µM and 0.0115 µM	0.000274 µM and 0.0025 µM	2.9 µM	–	–
O=C(Nc1ccc(-n2ccc3c(NC(=O)c4ccccc4)nccc32)cc1)Nc1ccc(Cl)c(Cl)c1	1.01 µM	2.36	0.252 µM	1.93 µM	1.47 µM	3.65 µM	0.488 µM	1.74 µM	1.23 µM	4.61 µM	0.736 µM	> 100 µM	1.31 µM	4.52	0.748 µM	2.2 µM	0.132 µM	0.932 µM	1.65	6.88 µM
CC(=O)Oc1ccccc1C(=O)Nc1ncc([N+](=O)[O-])s1	2.35 µM	–	2.14 µM	15.1 µM	2.03 µM	13.9 µM and > 100 µM	2.26 µM	9.55 µM and > 61.2 µM	0.227 µM	0.966 µM and 8.1 µM	2.53 µM	18.8 µM and > 100 µM	2.29 µM	> 85.2	1.5 µM	3.7 µM and 33 µM	2.32 µM	7.99 µM	2.64	> 100 µM
C1=C\COCc2cc(ccc2OCCN2CCCC2)Nc2nccc(n2)-c2cccc(c2)COC/1	3.51 µM	5.18	2.56 µM	7 µM	2.3 µM	5.37 µM	1.03 µM	4.07 µM	1.34 µM	4.86 µM	0.933 µM	3.65 µM	2.77 µM	7.35	–	–	0.306 µM	1.62 µM	0.971	4.15 µM
COc1ncc(-c2ccc3ncnc(Nc4cccc(Cl)c4)c3c2)cc1NS(=O)(=O)C1CC1	4.82 µM	> 100	> 100 µM	> 100 µM	> 100 µM	> 100 µM	–	–	0.394 µM	> 100 µM	> 100 µM	> 100 µM	1.17 µM	> 100	> 100 µM	> 100 µM	> 100 µM	> 100 µM	–	–
O=C(O)c1ccc(OCc2ccccc2)c(Cl)c1	–	> 100	–	> 100 µM	–	–	–	> 100 µM	–	> 100 µM	–	> 100 µM	–	> 100	–	> 100 µM	–	> 100 µM	–	> 100 µM
COc1ccc(CCNC(=O)c2ccc(NC3=C(Cl)C(=O)N(Cc4ccccc4)C3=O)cc2)cc1OC	3.88 µM	> 100	0.48 µM	3.71 µM	–	–	6.04 µM	> 100 µM	2.22 µM	5.75 µM	2.21 µM	5.21 µM	22.3 µM	64.4	6.27 µM	42.3 µM	1.44 µM	3.15 µM	3.04	9.11 µM
C=C1C(=O)OC2CC(C)C3(O)CCC(=O)C3(C)CC12 (stereo unspecified)	–	59.7	–	> 100 µM	–	50 µM	–	99.4 µM	–	> 100 µM	–	–	–	> 100	–	> 100 µM	–	57 µM	–	44.4 µM
[N-]=[N+]=Nc1cc(=O)n2c3c(cccc13)CCC2	–	> 100	–	> 100 µM	–	> 100 µM	–	> 100 µM	–	> 100 µM	–	> 100 µM	–	> 100	–	–	–	> 100 µM	–	–
